How the values were obtained:
[1] = system: K562 human chronic myeloid leukaemia cells; test: In vitro cytotoxicity, MTT assay; assay type: cell-based; details: K562, 1 hour drug exposure, MTT after 4 days
Method: K562 human chronic myeloid leukaemia cells were maintained in RPM1 1640 medium supplemented with 10% fetal calf serum and 2 mM glutamine at 37° C. in a humidified atmosphere containing 5% CO2 and were incubated with a specified dose of drug for 1 hour at 37° C. in the dark. The incubation was terminated by centrifugation (5 min, 300 g) and the cells were washed once with drug-free medium. Following the appropriate drug treatment, the cells were transferred to 96-well microtiter plates (10^4 cells per well, 8 wells per sample). Plates were then kept in the dark at 37° C. in a humidified atmosphere containing 5% CO2. The assay is based on the ability of viable cells to reduce a yellow soluble tetrazolium salt, 3-(4,5-dimethylthiazol-2-yl)-2,5-diphenyl-2H-tetrazolium bromide (MTT, Aldrich-Sigma), to an insoluble purple formazan precipitate. Following incubation of the plates for 4 days (to allow control cells to increase in number by approximately 10 fold), 20 μL of MTT solution (5 mg/mL in phosphate-buffered saline) was added to each well and the plates further incubated for 5 hours. The plates were then centrifuged for 5 minutes at 300 g and the bulk of the medium pipetted from the cell pellet leaving 10-20 μL per well. DMSO (200 μL) was added to each well and the samples agitated to ensure complete mixing. The optical density was then read at a wavelength of 550 nm on a Titertek Multiscan ELISA plate reader, and a dose-response curve was constructed.

[2] = system: calf thymus DNA (CT-DNA); test: DNA thermal denaturation (melting) studies; assay type: binding; details: CT-DNA 100 μM DNAp, compound 20 μM, 37 °C; for Induced ΔTm after incubation 0 hours: pH 7.00, 0 hours; for Induced ΔTm after incubation 4 hours: pH 7.00, 4 hours; for Induced ΔTm after incubation 18 hours: pH 7.00, 18 hours
Method in brief: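 CT-DNA at 100 μM (50 μM bp) with test compound at 20 μM in pH 7.00 10 mM sodium phosphate/1 mM EDTA, preincubated at 37.0 °C for 0–18 h (up to 72 h for some compounds). Absorbance at 260 nm, heated 1 °C/min over 45–98 °C; Tm from melting-profile midpoint, ΔTm versus free DNA, MeOH-corrected, mean±SD of ≥3.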

Compound	IC50 [1]	Induced ΔTm after incubation 0 hours [2]	Induced ΔTm after incubation 4 hours [2]	Induced ΔTm after incubation 18 hours [2]
COC(=O)c1cc(NC(=O)c2cc(NC(=O)CCCOc3cc4c(cc3OC)C(=O)N3CCC[C@H]3C=N4)cn2C)cn1C [Compound 23, (11aS) Methyl 4-({4-[4-(7-Methoxy-6-oxo-2,3,5,11a-tetrahydro-5H-pyrrolo[2,1-c][1,4]benzodiazepine-8-yloxy)-butyrylamino]-1-methyl-1H-pyrrole-2-carbonyl}-amino)-1-methyl-1H-pyrrole-2-carboxylate]	3.6 nM	13.9 °C	15.0 °C	15.6 °C
COC(=O)c1cc(NC(=O)c2cc(NC(=O)c3cc(NC(=O)CCOc4cc5c(cc4OC)C(=O)N4CCC[C@H]4C=N5)cn3C)cn2C)cn1C [Compound C11, (11aS) Methyl 4-{[4-({4-[4-(7-Methoxy-5-oxo-2,3,5,11a-tetrahydro-5H-pyrrolo[2,1-c][1,4]benzodiazepine-8-yloxy)-propionylamino]-1-methyl-1H-pyrrole-2-carbonyl]-amino)-1-methyl-1H-pyrrole-2-carbonyl]-amino}-1-methyl-1H-pyrrole-2-carboxylate]	346 nM	7.9 °C	8.4 °C	9.6 °C

Source: patent US8637664B2, “Alkyl 4- [4- (5-oxo-2,3,5, 11a-tetrahydo-5H-pyrrolo [2, 1-c] [1,4] benzodiazepine-8-yloxy)-butyrylamino]-1H-pyrrole-2-carboxylate derivatives and related compounds for the treatment of a proliferative disease” (Spirogen SARL, priority 2005, dated 2014)
